Among the data in patent publication US6124323A, “4-substituted piperidine analogs and their use as subtype selective NMDA receptor antagonists” (Warner-Lambert Company, priority 1998, dated 2000) are IC50 and ED50 values, retold here.

As a reminder, the ED50 is the dose that gives a 50% effect, or the effect in half of the subjects.

For test [1], the target named is T1, NMDA receptor subunits 1A/2A (Rattus norvegicus, UniProt P35439+Q00959).
T1 construct: expressed in transfected cells; host or cells: Xenopus laevis oocytes (cRNA injection; clones from Dr. P. H. Seeburg)
T1 sequence (Q00959 20-1464 limits assumed, other chains not shown): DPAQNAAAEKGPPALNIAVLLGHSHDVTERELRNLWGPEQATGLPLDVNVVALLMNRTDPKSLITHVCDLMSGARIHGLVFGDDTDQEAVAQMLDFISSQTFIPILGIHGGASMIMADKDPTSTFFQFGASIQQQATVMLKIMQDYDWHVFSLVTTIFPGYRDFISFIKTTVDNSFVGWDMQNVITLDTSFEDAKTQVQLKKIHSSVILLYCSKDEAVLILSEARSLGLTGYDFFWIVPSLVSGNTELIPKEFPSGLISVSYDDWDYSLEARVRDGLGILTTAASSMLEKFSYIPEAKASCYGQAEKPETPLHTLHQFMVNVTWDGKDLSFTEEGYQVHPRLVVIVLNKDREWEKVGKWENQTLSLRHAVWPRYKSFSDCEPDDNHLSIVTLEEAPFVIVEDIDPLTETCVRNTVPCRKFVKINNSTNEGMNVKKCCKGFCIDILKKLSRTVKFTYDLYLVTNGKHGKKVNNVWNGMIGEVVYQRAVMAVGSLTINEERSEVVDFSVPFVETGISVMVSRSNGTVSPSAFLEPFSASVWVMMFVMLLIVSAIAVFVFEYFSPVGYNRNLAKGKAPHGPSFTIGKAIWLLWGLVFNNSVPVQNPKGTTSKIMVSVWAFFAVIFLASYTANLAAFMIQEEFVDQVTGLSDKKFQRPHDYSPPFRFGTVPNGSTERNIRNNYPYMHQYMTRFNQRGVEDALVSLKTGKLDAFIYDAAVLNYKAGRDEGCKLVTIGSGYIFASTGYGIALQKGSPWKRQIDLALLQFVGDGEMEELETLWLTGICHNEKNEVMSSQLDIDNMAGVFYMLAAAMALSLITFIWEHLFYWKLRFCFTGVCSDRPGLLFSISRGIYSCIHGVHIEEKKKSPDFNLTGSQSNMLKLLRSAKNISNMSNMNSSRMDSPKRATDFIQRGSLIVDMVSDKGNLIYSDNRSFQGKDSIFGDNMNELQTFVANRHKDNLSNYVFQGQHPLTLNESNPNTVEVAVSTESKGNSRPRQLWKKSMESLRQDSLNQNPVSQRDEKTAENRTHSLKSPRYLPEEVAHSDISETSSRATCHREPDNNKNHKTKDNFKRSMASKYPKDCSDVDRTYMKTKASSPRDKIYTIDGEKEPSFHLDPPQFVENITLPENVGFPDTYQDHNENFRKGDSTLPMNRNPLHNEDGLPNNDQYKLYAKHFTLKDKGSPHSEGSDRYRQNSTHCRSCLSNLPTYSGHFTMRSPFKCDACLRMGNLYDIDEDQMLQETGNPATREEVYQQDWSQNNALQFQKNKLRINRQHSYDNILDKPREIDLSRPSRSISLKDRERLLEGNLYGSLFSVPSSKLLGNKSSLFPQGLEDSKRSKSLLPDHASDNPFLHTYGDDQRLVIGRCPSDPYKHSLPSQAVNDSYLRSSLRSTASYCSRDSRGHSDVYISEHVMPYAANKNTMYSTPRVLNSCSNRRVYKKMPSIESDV
The test is described as follows: Electrophysiological assay at NMDA receptor subunits expressed in Xenopus oocytes, 1A/2A. It is filed as cell-based. The note with it: glutamate 100 μm and glycine 1-100 μm. The gist of the method: (§1)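 Two-electrode voltage clamp of Xenopus oocytes injected with rat NR1A plus NR2A, 2B or 2C cRNA (1:1), recorded 3–21 days post-injection in Ringer's, pH 7.4. Currents evoked by glutamate (100 μm) with glycine (1–100 μm); antagonist applied by bath perfusion at rising concentrations, IC50 from logistic fit or linear regression for incomplete curves.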

Test [2] deals with T2, NMDA receptor subunits 1A/2B (Rattus norvegicus, UniProt P35439+Q00960).
T2 construct: expressed in transfected cells; host or cells: Xenopus laevis oocytes (cRNA injection; clones from Dr. P. H. Seeburg)
T2 sequence (Q00960 27-1482, other chains not shown): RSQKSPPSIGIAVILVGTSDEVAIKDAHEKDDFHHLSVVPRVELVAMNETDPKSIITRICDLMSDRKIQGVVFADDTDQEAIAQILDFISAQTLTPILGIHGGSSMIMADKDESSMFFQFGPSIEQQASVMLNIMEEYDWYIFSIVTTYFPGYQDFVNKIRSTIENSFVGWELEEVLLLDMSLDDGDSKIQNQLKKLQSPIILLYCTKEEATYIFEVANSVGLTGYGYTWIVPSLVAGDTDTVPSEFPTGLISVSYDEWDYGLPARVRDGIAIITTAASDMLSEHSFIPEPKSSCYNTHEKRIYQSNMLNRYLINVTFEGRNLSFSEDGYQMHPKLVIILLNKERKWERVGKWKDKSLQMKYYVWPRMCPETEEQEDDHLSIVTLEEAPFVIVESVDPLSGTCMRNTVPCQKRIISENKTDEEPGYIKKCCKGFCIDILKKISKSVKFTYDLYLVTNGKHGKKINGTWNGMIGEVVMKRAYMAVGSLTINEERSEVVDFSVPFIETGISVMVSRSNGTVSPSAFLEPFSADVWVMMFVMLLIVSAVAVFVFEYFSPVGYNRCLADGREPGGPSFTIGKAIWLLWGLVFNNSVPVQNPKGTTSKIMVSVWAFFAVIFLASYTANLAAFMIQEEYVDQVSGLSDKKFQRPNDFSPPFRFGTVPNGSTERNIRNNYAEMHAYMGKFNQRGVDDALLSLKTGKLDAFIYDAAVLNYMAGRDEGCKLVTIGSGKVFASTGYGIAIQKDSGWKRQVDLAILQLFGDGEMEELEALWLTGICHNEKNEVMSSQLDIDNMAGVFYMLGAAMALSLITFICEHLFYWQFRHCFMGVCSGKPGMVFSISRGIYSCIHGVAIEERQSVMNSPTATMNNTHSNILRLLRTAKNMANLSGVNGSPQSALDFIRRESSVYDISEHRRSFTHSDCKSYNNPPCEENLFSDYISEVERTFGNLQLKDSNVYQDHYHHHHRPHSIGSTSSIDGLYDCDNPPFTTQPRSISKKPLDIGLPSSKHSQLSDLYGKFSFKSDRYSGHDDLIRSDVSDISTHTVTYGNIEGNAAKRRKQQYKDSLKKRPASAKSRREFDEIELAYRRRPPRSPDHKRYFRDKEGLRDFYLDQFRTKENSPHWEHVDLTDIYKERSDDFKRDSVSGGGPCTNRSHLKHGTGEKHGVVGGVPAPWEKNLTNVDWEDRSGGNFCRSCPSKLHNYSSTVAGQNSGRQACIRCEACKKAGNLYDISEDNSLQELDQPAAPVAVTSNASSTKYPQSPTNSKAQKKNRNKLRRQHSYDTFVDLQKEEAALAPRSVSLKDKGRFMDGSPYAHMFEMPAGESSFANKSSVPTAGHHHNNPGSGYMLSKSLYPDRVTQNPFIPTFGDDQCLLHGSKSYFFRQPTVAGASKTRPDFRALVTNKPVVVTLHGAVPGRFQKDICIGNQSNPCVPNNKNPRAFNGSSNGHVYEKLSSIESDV
Put plainly: Electrophysiological assay at NMDA receptor subunits expressed in Xenopus oocytes, 1A/2B. The test is classed as cell-based. The note with it: Xenopus oocytes; glutamate 100 μm and glycine 1-100 μm; read-out: Subunits IC50, 1A/2B. The gist of the method: as §1

Test [3] has as its target T3, NMDA receptor subunits 1A/2C (Rattus norvegicus, UniProt P35439+Q00961).
T3 construct: expressed in transfected cells; host or cells: Xenopus laevis oocytes (cRNA injection; clones from Dr. P. H. Seeburg)
Put plainly: Electrophysiological assay at NMDA receptor subunits expressed in Xenopus oocytes, 1A/2C. As to conditions: Xenopus oocytes; glutamate 100 μm and glycine 1-100 μm; read-out: Subunits IC50, 1A/2C. It is filed as cell-based. The gist of the method: as §1

The subject of test [4] is Maximal Electroshock-induced Seizures. Put plainly: Maximal electroshock-induced seizures (MES). It is filed as in vivo. The note with it: Mus musculus; mice; 50 mA, 60 pulses/sec, 1 sec. (In general: The maximal electroshock test induces tonic seizures with an electrical stimulus.)
Source text: Seizures were induced by application of current (50 mA, 60 pulses/sec, 0.8 sec pulse width, 1 sec duration, d.c.) through saline-coated corneal electrodes using a Ugo Basile ECT device (Model 7801). […] A tonic seizure was defined as a hindlimb extension in excess of 90 degrees from the plane of the body.

Counter-ions that a name gives are not always drawn. Bounds are passed on as bounds.

T3 sequence (Q00961 20-1237, other chains not shown): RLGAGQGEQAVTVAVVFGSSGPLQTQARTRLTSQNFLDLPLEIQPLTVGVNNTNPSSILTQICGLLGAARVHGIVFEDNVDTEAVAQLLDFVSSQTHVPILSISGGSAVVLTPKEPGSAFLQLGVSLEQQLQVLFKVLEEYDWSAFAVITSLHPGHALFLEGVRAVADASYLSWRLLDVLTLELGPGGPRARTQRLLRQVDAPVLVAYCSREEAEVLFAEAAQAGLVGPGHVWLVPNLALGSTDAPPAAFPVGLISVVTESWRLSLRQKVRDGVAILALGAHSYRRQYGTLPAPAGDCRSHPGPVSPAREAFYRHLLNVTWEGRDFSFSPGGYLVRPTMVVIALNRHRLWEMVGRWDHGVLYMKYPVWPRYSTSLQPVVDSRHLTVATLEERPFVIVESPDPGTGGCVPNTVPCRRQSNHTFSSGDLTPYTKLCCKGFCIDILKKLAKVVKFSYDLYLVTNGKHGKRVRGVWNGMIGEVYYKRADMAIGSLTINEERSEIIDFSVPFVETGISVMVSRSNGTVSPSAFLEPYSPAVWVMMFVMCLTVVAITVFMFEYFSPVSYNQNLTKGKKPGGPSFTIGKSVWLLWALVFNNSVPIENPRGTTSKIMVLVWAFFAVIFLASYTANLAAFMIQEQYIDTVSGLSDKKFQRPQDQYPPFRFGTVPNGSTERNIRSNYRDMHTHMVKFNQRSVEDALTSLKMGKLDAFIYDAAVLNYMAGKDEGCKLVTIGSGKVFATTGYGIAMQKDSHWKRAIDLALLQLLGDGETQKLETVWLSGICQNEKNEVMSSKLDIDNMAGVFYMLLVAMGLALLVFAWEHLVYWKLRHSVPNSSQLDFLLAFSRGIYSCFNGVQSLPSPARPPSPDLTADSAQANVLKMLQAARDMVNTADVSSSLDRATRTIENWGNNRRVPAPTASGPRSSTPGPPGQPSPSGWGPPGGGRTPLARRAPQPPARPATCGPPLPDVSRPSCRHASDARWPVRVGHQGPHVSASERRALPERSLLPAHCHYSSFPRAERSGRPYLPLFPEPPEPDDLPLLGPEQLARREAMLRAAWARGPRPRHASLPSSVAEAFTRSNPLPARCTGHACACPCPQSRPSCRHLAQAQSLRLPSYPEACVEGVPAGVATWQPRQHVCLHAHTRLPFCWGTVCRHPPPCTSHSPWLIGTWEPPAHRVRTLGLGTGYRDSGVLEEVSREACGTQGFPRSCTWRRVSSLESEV

Turning to `Cc1ccc(CC2CCN(CCOc3ccc(O)cc3)CC2)cc1` [Ex. 115, 1-[2-(4-Hydroxyphenoxy)ethyl]-4-(4-methylbenzyl)piperidine hydrochloride], the IC50 in test [1] amounted to 75 µM; in test [2], 0.03 µM; in test [3], 220 µM. The same compound registered an ED50 in test [4] of 0.7 mg/kg.

As to `Cc1ccc(CC2CCN(CCOc3ccc(F)cc3)CC2)cc1` [Ex. 116, 1-(2-(4-Fluorophenoxy)ethyl)-4-(4-methylbenzyl)piperidine hydrochloride], the IC50 in test [1] is 70 µM; in test [2], 4.5 µM; in test [3], 150 µM. In test [4], this compound showed an ED50 of 3 mg/kg.

For the compound `CCc1ccc(CC2CCN(CCOc3ccc(O)cc3)CC2)cc1` [Ex. 120, hydrochloride], the IC50 is 55 µM in test [1], 0.02 µM in test [2] and over 300 µM in test [3]. The same compound gave an ED50 in test [4] of 2 mg/kg.

For `COc1ccc(CC2CCN(CCOc3ccc(O)cc3)CC2)cc1` [Ex. 121, 1-[2-(4-Hydroxyphenoxy)ethyl]-4-(4-methoxybenzyl)piperidine hydrochloride], the values for the IC50 in test [1], in test [2] and in test [3] were 110 µM, 0.05 µM and over 300 µM, respectively. In test [4], this compound registered an ED50 of 2.5 mg/kg.

Take `Oc1ccc(OCCN2CCC(Cc3ccc(F)c(F)c3)CC2)cc1` [Ex. 122, 1-[2-(4-Hydroxyphenoxy)ethyl]-4-(3,4-difluorobenzyl)piperidine hydrochloride]: the values for the IC50 in test [1], in test [2] and in test [3] were 55 µM, 0.18 µM and 280 µM, respectively. In test [4], this compound showed an ED50 of 5 mg/kg.

Consider `Oc1ccc(OCCN2CCC(O)(Cc3ccc(F)cc3)CC2)cc1` [Ex. 123, 1-[2-(4-Hydroxyphenoxy)ethyl]-4-(4-fluorobenzyl)-4-hydroxy-piperidine hydrochloride], for which the results for the IC50 in test [1], in test [2] and in test [3] were 50 µM, 0.07 µM and over 300 µM, respectively. This compound displayed an ED50 in test [4] of 3 mg/kg.

`Cl.Cl.Oc1ccc(OCCN2CCC(Cc3ccccn3)CC2)cc1` [Ex. 125, 1-(2-(4-Hydroxyphenoxy)ethyl)-4-(2-picolyl)piperidine dihydrochloride]: the values for the IC50 in test [1], in test [2] and in test [3] were 75 µM, 3.3 µM and over 300 µM, respectively. The same compound had an ED50 in test [4] of 15 mg/kg.

For the compound `Oc1ccc(OCCN2CCC(Cc3ccccc3F)CC2)cc1` [Ex. 128, 1-[2-(4-Hydroxyphenoxy)ethyl]-4-(2-fluorobenzyl)piperidine hydrochloride], the IC50 was 110 µM in test [1], 0.04 µM in test [2] and over 300 µM in test [3]. The ED50 in test [4] turned out to be 1 mg/kg.

`Oc1ccc(OCCN2CCC(Cc3ccc(C(F)(F)F)cc3)CC2)cc1` [Ex. 129, 1-[2-(4-Hydroxyphenoxy)ethyl]-4-(4-trifluorobenzyl)piperidine hydrochloride]: the IC50 in test [1] was found to be 170 µM; in test [2], 0.05 µM; in test [3], 170 µM. Moreover, it took a dose of 2 mg/kg to reach the 50% effect level in test [4] (ED50).

Consider `CC(C)c1ccc(CC2CCN(CCOc3ccc(O)cc3)CC2)cc1` [Ex. 131, 1-[2-(4-Hydroxyphenoxy)ethyl]-4-(4-isopropylbenzyl)piperidine hydrochloride], for which the IC50 is 50 µM in test [1], 0.05 µM in test [2] and over 300 µM in test [3]. This compound also gave an ED50 in test [4] of 1.5 mg/kg.

Regarding `CC(C)(C)c1ccc(CC2CCN(CCOc3ccc(O)cc3)CC2)cc1` [Ex. 132, 1-[2-(4-Hydroxyphenoxy)ethyl]-4-(4-t-butylbenzyl)piperidine hydrochloride], the figures for the IC50 in test [1], in test [2] and in test [3] were 23 µM, 0.16 µM and 230 µM, respectively. In test [4], this compound came in with an ED50 of 1 mg/kg.

Take `Cc1ccc(CC2CCN(CCOc3ccc(F)cc3)CC2)c(F)c1` [Ex. 133, 4-(2-Fluoro-4-methylbenzyl)-1-(2-(4-fluorophenoxy)ethyl)piperidine hydrochloride]: the results for the IC50 in test [1], in test [2] and in test [3] were 80 µM, 0.21 µM and 150 µM, respectively. The same compound gave an ED50 in test [4] of 2.5 mg/kg.

As for `Cc1ccc(CC2CCN(CCOc3ccc(O)cc3)CC2)c(F)c1` [Ex. 134, 4-(2-Fluoro-4-methylbenzyl)-1-(2-(4-hydroxyphenoxy)ethyl)piperidine hydrochloride], the IC50 in test [1] was 60 µM; in test [2], 0.03 µM; in test [3] it was 140 µM. In test [4], this compound registered an ED50 of 1.5 mg/kg.

With `CN(CCN1CCC(Cc2ccccc2)CC1)c1ccccc1` [Ex. 143, 4-Benzyl-1-((2-(N-methyl-N-phenyl)amino)ethyl)piperidine dihydrochloride], the IC50 was 190 µM in test [1], 0.4 µM in test [2] and over 300 µM in test [3]. In test [4], this compound came in with an ED50 of 0.5 mg/kg.

As to `Cl.Oc1ccc(OCCN2CCC(Cc3c(F)cccc3F)CC2)cc1` [Ex. 146, 1-[2-(4-Hydroxyphenoxy)ethyl]-4-(2,6-difluorobenzyl)piperidine hydrochloride], the IC50 in test [1] was found to be 30 µM; in test [2] it was 0.01 µM; in test [3], 160 µM. This compound also gave an ED50 in test [4] of 0.8 mg/kg.

With `Cc1ccc(CC2CCN(CCOc3ccc(O)c(C)c3)CC2)c(F)c1` [Ex. 147, 1-[2-(4-Hydroxy-3-methylphenoxy)ethyl]-4-(2-fluoro-4-methylbenzyl)piperidine hydrochloride], the IC50 in test [1] amounted to 40 µM; in test [2], 0.1 µM; in test [3] it was 210 µM. In addition, the ED50 in test [4] was determined as 3 mg/kg.

Turning to `Cc1ccc(CC2CCN(CCOc3ccc(O)c(F)c3)CC2)c(F)c1` [Ex. 149, 1-[2-(4-Hydroxy-3-fluorophenoxy)ethyl]-4-(2-fluoro-4-methylbenzyl)piperidine hydrochloride], the IC50 in test [1] turned out to be 50 µM; in test [2], 0.04 µM; in test [3], 140 µM. For the same compound, the ED50 in test [4] amounted to 2 mg/kg.

On to `Cc1ccc(CC2CCN(CCOc3ccc(O)c(F)c3)CC2)cc1` [Ex. 151, 1-[2-(4-Hydroxy-3-fluorophenoxy)ethyl]-4-(4-methylbenzyl)piperidine hydrochloride], for which the IC50 in test [1] was 52 µM; in test [2], 0.02 µM; in test [3], 100 µM. The compound also registered an ED50 in test [4] of 2.5 mg/kg.

As for `Cc1ccc(CC2(O)CCN(CCOc3ccc(O)cc3)CC2)cc1.Cl` [Ex. 154, 1-[2-(4-Hydroxyphenoxy)ethyl]-4-hydroxy-4-(4-methylbenzyl)piperidine hydrochloride], the IC50 in test [1] is 250 µM; in test [2] it was 0.02 µM; in test [3], 230 µM. This compound had an ED50 in test [4] of 1.5 mg/kg.

For `Cl.Oc1ccc(SCCN2CCC(Cc3ccc(F)cc3)CC2)cc1` [Ex. 165, 4-(4-Fluorobenzyl)-1-(2-(4-hydroxythiophenoxy)ethyl)piperidine hydrochloride], the IC50 in test [1] came out at 65 µM; in test [2] it was 0.05 µM; in test [3] it was 301 µM. In test [4], this compound registered an ED50 of 0.5 mg/kg.

Turning to `COc1ccc(C2CCN(CCCCc3ccccc3)CC2)cc1` [Ex. 166, 4-(4-Methoxyphenyl)-1-(4-phenylbutyl)piperidine], the results for the IC50 in test [1], in test [2] and in test [3] were 270 µM, 170 µM and over 300 µM, respectively. The compound further displayed an ED50 in test [4] of 0.7 mg/kg.

Turning to `Oc1ccc(C2CCN(CCCCc3ccccc3)CC2)cc1` [Ex. 167, 4-(4-Hydroxyphenyl)-1-(4-phenylbutyl)piperidine], the results for the IC50 in test [1], in test [2] and in test [3] were 110 µM, 0.02 µM and 301 µM, respectively. In test [4], this compound had an ED50 of 0.3 mg/kg.
